Non-standard residues stand in square brackets, D forms with d. Residues, ends and D or L forms follow the SMILES beside them. *: point of attachment. Palmitoyl = CCCCCCCCCCCCCCCC(=O)*; Lauroyl = CCCCCCCCCCCC(=O)*; Octanoyl = CCCCCCCC(=O)*
Each molecule was assayed against T1, bombesin receptor (Mus musculus, UniProt P21729) (assay: Affinity for the bombesin receptor by competition at the receptor for iodinated GRP (125I-GRP), pancreas membranes). Details: competition with 125I-GRP, 90 minutes at room temperature, read-out: Bombesin Receptor Binding (Example 5).
T1 construct: The pancreata from one or more mice were pooled, minced, and homogenized; from tissue; host or cells: mouse pancreas
T1 sequence (P21729 whole entry): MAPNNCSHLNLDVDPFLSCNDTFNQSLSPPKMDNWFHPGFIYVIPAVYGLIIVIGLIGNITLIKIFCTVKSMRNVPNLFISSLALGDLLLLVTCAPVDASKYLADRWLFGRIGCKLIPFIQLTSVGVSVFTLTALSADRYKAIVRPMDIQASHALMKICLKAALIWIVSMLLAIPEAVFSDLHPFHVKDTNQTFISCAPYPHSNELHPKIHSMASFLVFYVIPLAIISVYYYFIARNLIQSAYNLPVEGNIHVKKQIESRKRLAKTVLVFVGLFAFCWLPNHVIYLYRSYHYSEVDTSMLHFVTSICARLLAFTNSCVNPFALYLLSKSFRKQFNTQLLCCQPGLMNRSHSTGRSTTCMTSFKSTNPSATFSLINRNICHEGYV
Set-up: species or system mice
Description: The pancreata from one or more mice were pooled, minced, and homogenized in 50 mM HEPES (pH 7.4) containing 120 mM NaCl and 5 mM KCl at 4°C and centrifuged at 37,500 X g for 15 minutes. The pellet was resuspended in 50 mM HEPES (pH 7.4) containing 10 mM EDTA and 300 mM KCl and incubated for 30 minutes at 4°C. The suspension was centrifuged as above and the pellet was washed two times in 50 mM HEPES (pH 7.4) containing protease inhibitors (10 µM phenylmethylsulfonyl fluoride, 1 µM thiorphan, 40 µg/ml bacitracin, 10mM iodoacetic acid and 4 µg/ml leupeptin), and again centrifuged. The tissue was then resuspended in incubation buffer (1ml per 4 mg pancreas) and incubated for 15 minutes at room temperature, then 250 µl was added to each assay tube to commence the assay. The assay tubes contained incubation buffer consisting of 50 mM HEPES (pH 7.4), 0.5% BSA, protease inhibitors, 2 mM MnCl2, 1 µM somatostatin, and concentrations of ^125I-GRP and peptides as needed in a final volume of 500 µl. The assay was allowed to proceed to equilibrium for 90 minutes at room temperature. After this time, the contents of each tube was rapidly filtered over Whatman GF/B filters presoaked in 0.1% polyethyleneimine and the filters were rapidly washed three times with ice-cold 50 mM HEPES (pH 7.4). Filter-bound radioactivity was quantitated in a gamma counter. Competition of iodinated GRP binding by test compounds or standards was expressed as a percentage of ^125I-GRP binding in the absence of peptide. Affinity and maximal binding were calculated with Ligand (Biosoft, Cambridge, UK).

| Kd [nM] | SMILES |
| --- | --- |
| ≤ 500 | CCCCCCCCCCCC(=O)N[C@@H](CCC(N)=O)C(=O)N[C@@H](Cc1c[nH]c2ccccc12)C(=O)N[C@@H](C)C(=O)N[C@H](C(=O)N[C@H](C)C(=O)N[C@@H](Cc1c[nH]cn1)C(=O)N[C@@H](CC(C)C)C(N)=O)C(C)C [Example 2, N-(Lauroyl)-Gln-Trp-Ala-Val-ala-His-Leu-NH2] (Lauroyl-QWAV[dA]HL-NH2) |
| ≤ 500 | CCCCCCCCCCCCCCCC(=O)N[C@@H](CCC(N)=O)C(=O)N[C@@H](Cc1c[nH]c2ccccc12)C(=O)N[C@@H](C)C(=O)N[C@H](C(=O)N[C@H](C)C(=O)N[C@@H](Cc1c[nH]cn1)C(=O)N[C@@H](CC(C)C)C(N)=O)C(C)C [Example 3, N-(Palmitoyl)-Gln-Trp-Ala-Val-ala-His-Leu-NH2] (Palmitoyl-QWAV[dA]HL-NH2) |
| ≤ 50 | CCCCCCCC(=O)N[C@@H](CCC(N)=O)C(=O)N[C@@H](Cc1c[nH]c2ccccc12)C(=O)N[C@@H](C)C(=O)N[C@H](C(=O)N[C@H](C)C(=O)N[C@@H](Cc1c[nH]cn1)C(=O)N[C@@H](CC(C)C)C(N)=O)C(C)C [Example 1, N-(n-Octanoyl)-Gln-Trp-Ala-Val-ala-His-Leu-NH2] (Octanoyl-QWAV[dA]HL-NH2) |
| ≤ 50 | CCCCCCCC(=O)N[C@@H](CCC(N)=O)C(=O)N[C@@H](Cc1c[nH]c2ccccc12)C(=O)N[C@@H](C)C(=O)N[C@H](C(=O)N[C@H](C)C(=O)N[C@@H](Cc1c[nH]cn1)C(N)=O)C(C)C [Example 4, N-(n-Octanoyl)-Gln-Trp-Ala-Val-ala-His-NH2] (Octanoyl-QWAV[dA]H-NH2) |

— EP0468497B1, “Peptide-antagonists of bombesin/GRP” (MERRELL PHARMACEUTICALS INC., priority 1990, dated 1992)
